How the values were obtained:
[1] = biological target: T1, serotonine transporter (SERT) receptor (Homo sapiens, UniProt P31645); assay: Binding assay SERT (h), [3H]imipramine, CHO cells; details: read-out: SERT [%]
T1 construct: expressed in transfected cells; host or cells: CHO cells
Procedure, shortened: (§1)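 Detection relied on scintillation counting of bound ligand. Compounds at 1×10^−6 M were evaluated against specific binding, i.e. total binding corrected for the nonspecific fraction seen with excess unlabelled ligand.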

adrenergic α1 receptor = assay: Binding assay α1 (non-selective), [3H]prazosin, rat cerebral cortex; details: percent inhibition of control specific binding; compounds tested at 1×10^−6 M
Procedure, shortened: as §1

dopaminergic D3 receptor = dopaminergic D3 receptor (Homo sapiens, UniProt P35462); assay: Binding assay D3 (h), [3H]methyl-spiperone, CHO cells; set-up: expressed in transfected cells; host or cells: CHO cells; details: read-out: D3 [%]
Procedure, shortened: as §1

[2] = biological target: serotoninergic 5-HT6 receptor (Homo sapiens, UniProt P50406); assay: Binding assay 5-HT6 (h), [3H]LSD, CHO cells; set-up: expressed in transfected cells; host or cells: CHO cells; details: read-out: 5-HT6
Procedure, shortened: as §1

[3] = biological target: serotoninergic 5-HT7 receptor (Homo sapiens, UniProt P34969); assay: Binding assay 5-HT7 (h), [3H]LSD, CHO cells; set-up: expressed in transfected cells; host or cells: CHO cells; details: read-out: 5-HT7
Procedure, shortened: as §1

dopaminergic D2 receptor = dopaminergic D2 receptor (Homo sapiens, UniProt P14416); assay: Binding assay D2S (h), [3H]methyl-spiperone, HEK-293 cells; set-up: expressed in transfected cells; host or cells: HEK-293 cells; details: read-out: D2 [%]
Procedure, shortened: as §1

[4] = biological target: T2, serotoninergic 5-HT1A receptor (Homo sapiens, UniProt P08908); assay: Binding assay 5-HT1A (h), [3H]8-OH-DPAT, HEK-293 cells; set-up: expressed in transfected cells; host or cells: HEK-293 cells; details: read-out: 5-HT1A
T2 sequence (P08908 1-422): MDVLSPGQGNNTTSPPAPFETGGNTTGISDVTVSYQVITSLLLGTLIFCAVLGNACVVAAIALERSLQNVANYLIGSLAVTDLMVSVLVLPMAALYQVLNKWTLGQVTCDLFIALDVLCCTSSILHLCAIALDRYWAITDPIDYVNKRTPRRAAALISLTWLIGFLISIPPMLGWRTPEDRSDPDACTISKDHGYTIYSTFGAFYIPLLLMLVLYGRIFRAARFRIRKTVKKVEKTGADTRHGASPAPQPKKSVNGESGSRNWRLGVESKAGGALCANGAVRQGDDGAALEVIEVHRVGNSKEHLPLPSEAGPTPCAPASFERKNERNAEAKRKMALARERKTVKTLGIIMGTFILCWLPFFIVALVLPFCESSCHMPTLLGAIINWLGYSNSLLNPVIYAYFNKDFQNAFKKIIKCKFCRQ
Procedure, shortened: as §1

[5] = biological target: serotoninergic 5-HT2A receptor (Homo sapiens, UniProt P28223); assay: Binding assay 5-HT2A (h), [3H]ketanserin, HEK-293 cells; set-up: expressed in transfected cells; host or cells: HEK-293 cells; details: read-out: 5-HT2A
Procedure, shortened: as §1

Chain of serotoninergic 5-HT7 receptor (P34969 whole entry): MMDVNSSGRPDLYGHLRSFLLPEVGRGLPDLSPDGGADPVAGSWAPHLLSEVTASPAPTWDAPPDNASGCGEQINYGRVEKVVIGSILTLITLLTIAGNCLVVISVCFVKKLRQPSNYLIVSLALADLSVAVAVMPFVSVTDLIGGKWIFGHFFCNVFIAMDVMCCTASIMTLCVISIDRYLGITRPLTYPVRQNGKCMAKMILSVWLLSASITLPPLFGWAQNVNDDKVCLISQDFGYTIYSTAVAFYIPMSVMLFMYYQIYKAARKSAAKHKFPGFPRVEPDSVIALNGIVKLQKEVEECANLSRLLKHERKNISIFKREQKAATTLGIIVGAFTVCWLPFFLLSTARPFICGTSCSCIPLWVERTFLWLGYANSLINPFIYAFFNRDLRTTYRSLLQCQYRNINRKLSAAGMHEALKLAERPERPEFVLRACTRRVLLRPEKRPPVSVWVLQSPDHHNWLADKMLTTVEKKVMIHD
Chain of dopaminergic D3 receptor (P35462 whole entry): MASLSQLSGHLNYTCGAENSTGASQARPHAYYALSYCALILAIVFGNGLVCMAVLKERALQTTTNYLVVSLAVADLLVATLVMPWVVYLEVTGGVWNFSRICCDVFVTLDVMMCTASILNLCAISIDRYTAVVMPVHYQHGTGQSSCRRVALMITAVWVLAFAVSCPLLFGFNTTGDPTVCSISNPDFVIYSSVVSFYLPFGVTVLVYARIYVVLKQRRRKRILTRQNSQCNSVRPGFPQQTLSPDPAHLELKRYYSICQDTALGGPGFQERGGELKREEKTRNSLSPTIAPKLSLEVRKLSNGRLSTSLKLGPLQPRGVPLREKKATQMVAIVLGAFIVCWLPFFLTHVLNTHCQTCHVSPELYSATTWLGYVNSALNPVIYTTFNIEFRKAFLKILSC
Chain of serotoninergic 5-HT6 receptor (P50406 whole entry): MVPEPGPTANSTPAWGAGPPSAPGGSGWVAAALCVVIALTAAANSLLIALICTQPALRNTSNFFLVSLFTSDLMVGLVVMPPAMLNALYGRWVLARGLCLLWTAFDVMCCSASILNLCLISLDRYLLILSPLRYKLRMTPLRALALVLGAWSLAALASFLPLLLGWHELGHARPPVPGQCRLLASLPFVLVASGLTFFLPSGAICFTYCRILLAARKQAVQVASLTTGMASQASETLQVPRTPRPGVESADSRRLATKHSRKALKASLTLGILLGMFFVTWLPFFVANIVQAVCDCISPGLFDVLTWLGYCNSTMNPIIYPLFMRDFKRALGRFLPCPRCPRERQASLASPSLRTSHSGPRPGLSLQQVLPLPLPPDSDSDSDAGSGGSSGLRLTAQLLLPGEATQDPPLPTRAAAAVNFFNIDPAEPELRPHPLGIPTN
T1 sequence (P31645 whole entry): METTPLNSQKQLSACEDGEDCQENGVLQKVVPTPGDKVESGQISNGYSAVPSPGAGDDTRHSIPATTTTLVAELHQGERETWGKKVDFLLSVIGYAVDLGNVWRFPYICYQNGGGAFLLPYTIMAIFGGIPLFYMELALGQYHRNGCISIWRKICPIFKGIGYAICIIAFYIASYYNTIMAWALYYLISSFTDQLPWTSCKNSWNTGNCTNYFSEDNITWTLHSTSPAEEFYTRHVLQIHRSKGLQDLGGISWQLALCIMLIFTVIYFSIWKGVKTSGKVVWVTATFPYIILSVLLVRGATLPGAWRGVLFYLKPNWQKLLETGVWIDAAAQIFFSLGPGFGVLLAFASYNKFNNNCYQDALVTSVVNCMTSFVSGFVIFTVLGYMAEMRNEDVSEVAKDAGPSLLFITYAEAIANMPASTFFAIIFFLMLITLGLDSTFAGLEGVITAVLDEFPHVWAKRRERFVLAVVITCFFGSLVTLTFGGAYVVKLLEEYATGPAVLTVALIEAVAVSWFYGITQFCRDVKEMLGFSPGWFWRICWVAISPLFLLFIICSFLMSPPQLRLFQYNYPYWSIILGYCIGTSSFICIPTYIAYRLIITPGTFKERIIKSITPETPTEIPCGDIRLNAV
Chain of serotoninergic 5-HT2A receptor (P28223 whole entry): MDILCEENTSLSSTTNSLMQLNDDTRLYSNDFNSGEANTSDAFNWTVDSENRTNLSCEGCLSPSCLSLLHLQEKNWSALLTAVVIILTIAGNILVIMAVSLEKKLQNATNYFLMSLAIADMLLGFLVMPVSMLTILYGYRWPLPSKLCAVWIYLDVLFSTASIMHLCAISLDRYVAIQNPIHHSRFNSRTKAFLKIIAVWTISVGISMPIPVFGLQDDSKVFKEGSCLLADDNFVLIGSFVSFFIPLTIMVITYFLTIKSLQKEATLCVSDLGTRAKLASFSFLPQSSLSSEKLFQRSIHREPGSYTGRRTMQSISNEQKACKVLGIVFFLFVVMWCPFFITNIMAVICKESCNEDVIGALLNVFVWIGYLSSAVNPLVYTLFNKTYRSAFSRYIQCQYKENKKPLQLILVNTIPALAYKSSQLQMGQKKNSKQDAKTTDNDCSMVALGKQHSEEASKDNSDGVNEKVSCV
Chain of dopaminergic D2 receptor (P14416 1-414 isoform P14416-2): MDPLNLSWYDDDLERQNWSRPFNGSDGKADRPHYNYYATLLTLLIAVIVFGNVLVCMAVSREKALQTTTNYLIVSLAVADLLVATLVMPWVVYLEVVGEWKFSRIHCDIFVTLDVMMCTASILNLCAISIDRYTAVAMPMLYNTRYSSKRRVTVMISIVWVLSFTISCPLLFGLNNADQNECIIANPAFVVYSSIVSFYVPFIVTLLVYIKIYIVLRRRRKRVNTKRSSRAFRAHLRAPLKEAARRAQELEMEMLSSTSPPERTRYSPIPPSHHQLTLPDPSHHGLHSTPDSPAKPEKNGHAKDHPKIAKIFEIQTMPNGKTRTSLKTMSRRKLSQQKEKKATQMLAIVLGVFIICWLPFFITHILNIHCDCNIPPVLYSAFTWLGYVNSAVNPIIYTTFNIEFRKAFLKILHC

Row | Compound | inhibition at 1 µM [1] [%] | α1 [%] (adrenergic α1 receptor) | inhibition at 1 µM (dopaminergic D3 receptor) [%] | inhibition at 1 µM [2] [%] | inhibition at 1 µM [3] [%] | inhibition at 1 µM (dopaminergic D2 receptor) [%] | inhibition at 1 µM [4] [%] | inhibition at 1 µM [5] [%]
1 | O=S(=O)(NCCCN1CCN(c2cccc3c2OCCO3)CC1)c1ccc2cc(Cl)ccc2c1 [Compound 407, 6-Chloro-N-[3-[4-(2,3-dihydro-1,4-benzodioxin-5-yl)piperazin-1-yl]propyl]naphthalene-2-sulphonamide] | -2 | 72 | 84 | 37 | 102 | 58 | 88 | 50
2 | O=S(=O)(NCCCN1CCN(c2cccc3c2OCCO3)CC1)c1ccc(F)cc1 [Compound 408, N-[3-[4-(2,3-Dihydro-1,4-benzodioxin-5-yl)piperazin-1-yl]propyl]-4-fluorobenzenesulphonamide] | -18 | 70 | 70 | 35 | 83 | 40 | 101 | -50
3 | O=S(=O)(NCCCN1CCN(c2cccc3c2OCCO3)CC1)c1cccc(F)c1 [Compound 409, N-[3-[4-(2,3-Dihydro-1,4-benzodioxin-5-yl)piperazin-1-yl]propyl]-3-fluorobenzenesulphonamide] | 2 | 81 | 85 | -9 | 91 | 79 | 81 | 66
4 | O=S(=O)(NCCCN1CCN(c2cccc3c2OCCO3)CC1)c1cccc(Cl)c1 [Compound 411, 3-Chloro-N-[3-[4-(2,3-dihydro-1,4-benzodioxin-5-yl)piperazin-1-yl]propyl]benzenesulphonamide] | 12 | 87 | 52 | 41 | 89 | 40 | 95 | 4
5 | Cc1cccc(S(=O)(=O)NCCCN2CCN(c3cccc4c3OCCO4)CC2)c1 [Compound 414, N-[3-[4-(2,3-Dihydro-1,4-benzodioxin-8-yl)piperazin-1-yl]propyl]-3-methylbenzenesulphonamide] | 18 | 88 | 81 | -15 | 94 | 48 | 98 | 76
6 | O=S(=O)(NCCCN1CCN(c2cccc3c2OCCO3)CC1)c1ccc(-c2ccccc2)cc1 [Compound 415, N-[3-[4-(2,3-Dihydro-1,4-benzodioxin-5-yl)piperazin-1-yl]propyl]-4-phenylbenzenesulphonamide] | -5 | 78 | 76 | 15 | 92 | 58 | 96 | 25
7 | O=S(=O)(NCCCN1CCN(c2cccc3c2OCCO3)CC1)c1csc2ccccc12 [Compound 416, N-[3-[4-(2,3-Dihydro-1,4-benzodioxin-5-yl)piperazin-1-yl]propyl]benzothiophene-3-sulphonamide] | -4 | 81 | 56 | 55 | 99 | 59 | 101 | 58
8 | O=S(=O)(NCCCN1CCN(c2cccc3c2OCCO3)CC1)c1ccc2c(c1)CCO2 [Compound 417, N-[3-[4-(2,3-Dihydro-1,4-benzodioxin-5-yl)piperazin-1-yl]propyl]-2,3-dihydrobenzofuran-5-sulphonamide] | -11 | 73 | 67 | 24 | 62 | 68 | 100 | -48

From patent publication US8822517B2, “Arylosulfonamides for the treatment of CNS diseases” (Adamed SP. Z O.O., priority 2010, dated 2014)
